Laboratory results published in EP4483954A1 (Masarykova Univerzita, priority 2023, dated 2025).
pIC50: −log10 of the molar value.

Legend:
Assay type in all cases: biochemical
TAF1L(h) = target: T1, TAF1L(h) (Homo sapiens, UniProt Q8IZX4); assay: radiometric kinase assay (KinaseProfiler, Eurofins), TAF1L; details: in vitro radiometric kinase assay, tested at 1 nM to 10 000 nM, no pre-incubation; read-out: inhibitory activities (IC50 values) TAF1L
T1 construct: purchased Eurofins (KinaseProfiler)
Procedure: (§1) The compounds were profiled in the radiometric assays (KinaseProfiler, Eurofins).
(§2) Briefly, kinases were diluted in the buffer shown below prior to addition to the reaction mix: • CDKL3, TAF1L: 20 mM Tris/HCl pH 8.5, 0.2 mM EDTA, 0.1% β-mercaptoethanol, 0.01% Brij-35, 5% glycerol, 1 mg/ml BSA; • Haspin: 15 mM MOPS, 0.75 mM EDTA, 0.0075% Brij-35, 3.75% Glycerol, 150 mM NaCl, 0.1% β-mercaptoethanol, 1 mg/mLBSA; • CDKL4, CLK2, PIM1, TRB2: […], 1 mM EDTA, 0.01% Brij-35, 5% Glycerol, 0.1% β-mercaptoethanol, 1 mg/mL BSA.
(§3) All compounds were prepared to 50x final assay concentration in 100% DMSO. This working stock of the compound was added to the assay well as the first component in the reaction, followed by the remaining components as detailed in the general assay protocols below. There was no pre-incubation step between the compound and the kinase prior to initiation of the reaction.
(§4) TAF1L(h) was incubated with 20 mM Tris/HCl pH 8.5, 0.2 mM EDTA, 250 µM RRRFRPASPLRGPPK (SEQ ID NO. 1), 10 mM magnesium acetate and γ-^33P-ATP (specific activity and concentration as required). The reaction was initiated by the addition of the Mg/ATP mix. After incubation for 120 minutes at room temperature, the reaction was stopped by the addition of phosphoric acid to a concentration of 0.5%. An aliquot of the stopped reaction was spotted onto a filter and washed four times for 4 minutes in 0.425% phosphoric acid and once in methanol prior to drying and scintillation counting.
(§5) Kinase activity data were expressed as the percent remaining kinase activity in tested samples compared to the vehicle (DMSO) reactions. The compounds were tested at the following concentrations: 1 nM, 3 nM, 10 nM, 30 nM, 100 nM, 300 nM, 1000 nM, 3000 nM, and 10 000 nM; IC50 values and curve fits were then obtained.

DYRK2 (h) = target: T2, DYRK2 (h) (Homo sapiens, UniProt Q92630); assay: radiometric kinase assay (KinaseProfiler, Eurofins), DYRK2; details: in vitro radiometric kinase assay, tested at 1 nM to 10 000 nM, no pre-incubation; read-out: inhibitory activities (IC50 values) DYRK2
T2 construct: purchased Eurofins (KinaseProfiler)
T2 sequence (Q92630 1-601): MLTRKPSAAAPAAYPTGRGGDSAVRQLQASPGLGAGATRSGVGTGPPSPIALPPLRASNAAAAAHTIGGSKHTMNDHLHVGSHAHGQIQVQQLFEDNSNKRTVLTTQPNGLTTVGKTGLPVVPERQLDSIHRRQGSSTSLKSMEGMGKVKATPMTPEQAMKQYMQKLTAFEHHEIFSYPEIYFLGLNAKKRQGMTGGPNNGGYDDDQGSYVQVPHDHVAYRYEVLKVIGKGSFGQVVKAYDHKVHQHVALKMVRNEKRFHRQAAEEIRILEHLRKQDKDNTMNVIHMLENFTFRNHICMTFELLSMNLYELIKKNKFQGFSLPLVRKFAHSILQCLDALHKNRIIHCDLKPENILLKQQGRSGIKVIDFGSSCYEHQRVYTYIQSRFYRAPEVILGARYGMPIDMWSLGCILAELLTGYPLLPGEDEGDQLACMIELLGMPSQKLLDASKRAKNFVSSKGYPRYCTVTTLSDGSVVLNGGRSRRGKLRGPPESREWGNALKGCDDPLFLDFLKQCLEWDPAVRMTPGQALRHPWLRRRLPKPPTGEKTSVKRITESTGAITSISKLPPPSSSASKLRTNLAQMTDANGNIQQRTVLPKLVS
Procedure: as §1, §3
DYRK2 (h) was incubated with 8 mM MOPS pH 7.0, 0.2 mM EDTA, 2 mg/mL casein, 10 mM magnesium acetate and γ-^33P-ATP (specific activity and concentration as required). The reaction was initiated by the addition of the Mg/ATP mix. After incubation for 40 minutes at room temperature, the reaction was stopped by the addition of phosphoric acid to a concentration of 0.5%. An aliquot of the reaction was then spotted onto a filter and washed four times for 4 minutes in 0.425% phosphoric acid and once in methanol prior to drying and scintillation counting.
as §5

CDKL4(h) = target: T3, CDKL4(h) (Homo sapiens, UniProt Q5MAI5); assay: radiometric kinase assay (KinaseProfiler, Eurofins), CDKL4; details: in vitro radiometric kinase assay, tested at 1 nM to 10 000 nM, no pre-incubation; read-out: inhibitory activities (IC50 values) CDKL4
T3 construct: purchased Eurofins (KinaseProfiler)
Procedure: as §1, §2, §3
as §4, with “CDKL4(h) was” for “TAF1L(h) was”, “with 8” for “with 20”, “mM MOPS” for “mM Tris/HCl”, “pH 7.0,” for “pH 8.5,”
as §5

TRB2(h) = target: T4, TRB2(h) (Homo sapiens, UniProt Q92519); assay: radiometric kinase assay (KinaseProfiler, Eurofins), TRB2; details: in vitro radiometric kinase assay, tested at 1 nM to 10 000 nM, no pre-incubation; read-out: inhibitory activities (IC50 values) TRB2
T4 construct: purchased Eurofins (KinaseProfiler)
T4 sequence (Q92519 1-343): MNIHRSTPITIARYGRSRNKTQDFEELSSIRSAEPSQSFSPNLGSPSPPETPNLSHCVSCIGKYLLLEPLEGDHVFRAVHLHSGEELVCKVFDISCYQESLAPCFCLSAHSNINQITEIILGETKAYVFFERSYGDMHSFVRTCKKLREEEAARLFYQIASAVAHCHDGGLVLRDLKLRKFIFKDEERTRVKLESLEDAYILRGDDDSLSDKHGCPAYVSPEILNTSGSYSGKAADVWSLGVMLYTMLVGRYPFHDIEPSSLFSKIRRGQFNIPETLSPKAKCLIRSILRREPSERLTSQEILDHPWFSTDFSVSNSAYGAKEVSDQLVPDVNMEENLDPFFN
Procedure: as §1, §2, §3
as §4, with “TRB2(h) was” for “TAF1L(h) was”, “with 8” for “with 20”, “mM MOPS” for “mM Tris/HCl”, “pH 7.0,” for “pH 8.5,”
as §5

T1 sequence (Q8IZX4 whole entry): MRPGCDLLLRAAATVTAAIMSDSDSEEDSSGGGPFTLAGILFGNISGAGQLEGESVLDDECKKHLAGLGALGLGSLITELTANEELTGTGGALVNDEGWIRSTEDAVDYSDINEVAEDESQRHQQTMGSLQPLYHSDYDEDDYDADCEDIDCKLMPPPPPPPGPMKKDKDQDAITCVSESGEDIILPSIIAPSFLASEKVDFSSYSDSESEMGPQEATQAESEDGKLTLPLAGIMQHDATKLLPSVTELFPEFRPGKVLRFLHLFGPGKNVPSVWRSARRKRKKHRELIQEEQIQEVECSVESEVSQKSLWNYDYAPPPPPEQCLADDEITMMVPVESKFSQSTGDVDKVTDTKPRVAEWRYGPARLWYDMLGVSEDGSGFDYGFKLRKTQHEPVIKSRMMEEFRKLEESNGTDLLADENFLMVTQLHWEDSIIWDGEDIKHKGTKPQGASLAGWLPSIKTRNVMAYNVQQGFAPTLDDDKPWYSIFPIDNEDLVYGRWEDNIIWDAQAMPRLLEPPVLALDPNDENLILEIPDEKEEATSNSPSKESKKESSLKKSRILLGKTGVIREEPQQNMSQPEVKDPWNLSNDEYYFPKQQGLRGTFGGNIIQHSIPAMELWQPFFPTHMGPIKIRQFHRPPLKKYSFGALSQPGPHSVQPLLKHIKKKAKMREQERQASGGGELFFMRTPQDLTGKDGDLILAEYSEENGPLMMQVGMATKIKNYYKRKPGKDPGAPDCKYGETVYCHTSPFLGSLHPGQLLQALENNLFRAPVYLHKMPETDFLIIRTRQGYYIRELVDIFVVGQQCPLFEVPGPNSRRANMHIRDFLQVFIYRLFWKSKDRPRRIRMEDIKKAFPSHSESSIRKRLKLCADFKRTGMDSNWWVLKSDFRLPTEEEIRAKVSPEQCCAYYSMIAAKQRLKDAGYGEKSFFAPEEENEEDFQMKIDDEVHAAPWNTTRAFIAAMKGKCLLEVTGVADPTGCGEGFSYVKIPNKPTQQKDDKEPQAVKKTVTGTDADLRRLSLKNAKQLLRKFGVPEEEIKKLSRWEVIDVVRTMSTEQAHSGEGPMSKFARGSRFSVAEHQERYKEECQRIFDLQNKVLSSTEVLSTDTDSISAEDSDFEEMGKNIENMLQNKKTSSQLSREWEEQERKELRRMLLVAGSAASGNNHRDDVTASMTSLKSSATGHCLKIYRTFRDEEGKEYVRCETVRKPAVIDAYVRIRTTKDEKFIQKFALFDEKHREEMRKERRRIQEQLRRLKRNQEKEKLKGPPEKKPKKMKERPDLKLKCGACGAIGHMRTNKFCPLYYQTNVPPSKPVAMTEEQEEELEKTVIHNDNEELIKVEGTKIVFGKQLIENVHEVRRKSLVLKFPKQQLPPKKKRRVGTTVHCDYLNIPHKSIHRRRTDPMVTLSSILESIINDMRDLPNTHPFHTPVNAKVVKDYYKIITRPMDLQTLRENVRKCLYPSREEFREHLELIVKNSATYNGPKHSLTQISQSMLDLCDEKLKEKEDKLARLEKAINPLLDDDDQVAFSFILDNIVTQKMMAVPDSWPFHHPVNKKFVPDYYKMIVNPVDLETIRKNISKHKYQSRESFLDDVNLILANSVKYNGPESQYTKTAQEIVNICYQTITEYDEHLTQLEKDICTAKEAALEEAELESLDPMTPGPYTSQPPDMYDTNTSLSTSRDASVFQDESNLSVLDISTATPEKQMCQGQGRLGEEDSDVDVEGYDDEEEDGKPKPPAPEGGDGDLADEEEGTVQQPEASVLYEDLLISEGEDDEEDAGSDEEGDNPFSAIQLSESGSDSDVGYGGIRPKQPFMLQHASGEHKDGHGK
T3 sequence (Q5MAI5 whole entry): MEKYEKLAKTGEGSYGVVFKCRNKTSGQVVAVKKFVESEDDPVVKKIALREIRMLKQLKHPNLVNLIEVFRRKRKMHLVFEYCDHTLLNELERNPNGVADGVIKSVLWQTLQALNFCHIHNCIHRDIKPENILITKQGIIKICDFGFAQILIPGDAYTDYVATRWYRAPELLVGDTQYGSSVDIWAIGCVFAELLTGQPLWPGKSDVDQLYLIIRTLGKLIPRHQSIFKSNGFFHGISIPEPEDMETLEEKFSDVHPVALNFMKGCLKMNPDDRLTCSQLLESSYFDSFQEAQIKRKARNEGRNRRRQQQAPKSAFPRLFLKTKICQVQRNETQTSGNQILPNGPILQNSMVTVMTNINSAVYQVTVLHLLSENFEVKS

pIC50 (TAF1L(h))	pIC50 (DYRK2 (h))	pIC50 (CDKL4(h))	pIC50 (TRB2(h))	Structure (SMILES)
5.52 to 6.30	5.52 to 6.30	5.52 to 6.30	5.52 to 6.30	CCn1cc(-c2ccc3scc(-c4ccncc4)c3n2)cn1 [Preparative Example 77, 5-(1-ethyl-1H-pyrazol-4-yl)-3-(pyridin-4-yl)thieno[3,2-b]pyridine]
5.52 to 6.30	5.52 to 6.30	5.52 to 6.30	5.52 to 6.30	Cn1cc(-c2ccc3scc(-c4cccnc4)c3n2)cn1 [Preparative Example 11, 5-(1-methyl-1H-pyrazol-4-yl)-3-(pyridin-3-yl)thieno[3,2-b]pyridine]
6.30 to 7.00	6.30 to 7.00	6.30 to 7.00	5.52 to 6.30	Cn1cc(-c2ccc3scc(-c4cnn(C)c4)c3n2)cn1 [Preparative Example 63, 3,5-bis(1-methyl-1H-pyrazol-4-yl)thieno[3,2-b]pyridine]
5.52 to 6.30	5.00 to 5.52	5.52 to 6.30	5.00 to 5.52	c1ccc(Cn2cc(-c3ccc4scc(-c5ccncc5)c4n3)cn2)cc1 [Preparative Example 81, 5-(1-benzyl-1H-pyrazol-4-yl)-3-(pyridin-4-yl)thieno[3,2-b]pyridine]
6.30 to 7.00	6.30 to 7.00	6.30 to 7.00	6.30 to 7.00	Cc1nsc(-c2csc3ccc(-c4cnn(C)c4)nc23)n1 [Preparative Example 71, 3-(3-methyl-1,2,4-thiadiazol-5-yl)-5-(1-methyl-1H-pyrazol-4-yl)thieno[3,2-b]pyridine]
5.52 to 6.30	5.00 to 5.52	5.52 to 6.30	6.30 to 7.00	Cn1ncc(-c2ccc3scc(-c4ccncc4)c3n2)c1CC1CC1 [Preparative Example 82, 5-(5-(cyclopropylmethyl)-1-methyl-1H-pyrazol-4-yl)-3-(pyridin-4-yl)thieno[3,2-b]pyridine]
5.52 to 6.30	5.00 to 5.52	5.52 to 6.30	5.52 to 6.30	COc1cc(-c2ccn(C)n2)nc2c(-c3ccncc3)csc12 [Preparative Example 165, 7-methoxy-5-(1-methyl-1H-pyrazol-3-yl)-3-(pyridin-4-yl)thieno[3,2-b]pyridine]
6.30 to 7.00	6.30 to 7.00	6.30 to 7.00	7.00 to 7.70	Cn1cc(-c2ccc3scc(-c4ccc5ncnn5c4)c3n2)cn1 [Preparative Example 53, 3-([1,2,4]-triazolo[1,5-a]pyridin-6-yl)-5-(1-methyl-1H-pyrazol-4-yl)thieno[3,2-b]pyridine]
6.30 to 7.00	5.52 to 6.30	5.52 to 6.30	5.52 to 6.30	Cn1cc(-c2ccc3scc(-c4ccnnc4)c3n2)cn1 [Preparative Example 40, 5-(1-methyl-1H-pyrazol-4-yl)-3-(pyridazin-4-yl)thieno[3,2-b]-pyridine]
5.00 to 5.52	5.00 to 5.52	5.00 to 5.52	5.00 to 5.52	Cc1cc2scc(-c3ccncc3)c2nc1-c1ccn(C)n1 [Preparative Example 151, 6-methyl-5-(1-methyl-1H-pyrazol-3-yl)-3-(pyridin-4-yl)thieno[3,2-b]pyridine]
5.00 to 5.52	5.00 to 5.52	5.52 to 6.30	5.52 to 6.30	Cc1cc(-c2cnn(C)c2)nc2c(-c3ccncc3)csc12 [Preparative Example 157, 7-methyl-5-(1-methyl-1H-pyrazol-4-yl)-3-(pyridin-4-yl)thieno[3,2-b]pyridine]
5.52 to 6.30	5.00 to 5.52	5.00 to 5.52	5.52 to 6.30	Cn1cc(-c2ccc3scc(-c4ccncc4)c3n2)nn1 [Preparative Example 93, 5-(1-methyl-1H-1,2,3-triazol-4-yl)-3-(pyridin-4-yl)thieno[3,2-b]pyridine]
5.00 to 5.52	5.00 to 5.52	5.00 to 5.52	5.00 to 5.52	Fc1cc(-c2ccc3scc(-c4ccccc4)c3n2)cc(F)c1F [Preparative Example 122, 3-phenyl-5-(3,4,5-trifluorophenyl)thieno[3,2-b]pyridine]
5.52 to 6.30	5.00 to 5.52	5.52 to 6.30	5.52 to 6.30	Cc1cc2scc(-c3ccncc3)c2nc1-c1cnn(C)c1 [Preparative Example 150, 6-methyl-5-(1-methyl-1H-pyrazol-4-yl)-3-(pyridin-4-yl)thieno[3,2-b]pyridine]
5.00 to 5.52	5.00 to 5.52	5.00 to 5.52	5.00 to 5.52	Cn1cc(-c2ccc3scc(C(=O)c4ccccc4)c3n2)cn1 [Preparative Example 73, (5-(1-methyl-1H-pyrazol-4-yl)thieno[3,2-b]pyridin-3-yl)(phenyl)-methanone]
5.52 to 6.30	5.00 to 5.52	5.52 to 6.30	5.52 to 6.30	Cn1cc(-c2ccc3scc(-c4ccncc4)c3n2)c(N)n1 [Preparative Example 84, 1-methyl-4-(3-(pyridin-4-yl)thieno[3,2-b]pyridin-5-yl)-1H-pyrazol-3-amine]
6.30 to 7.00	5.52 to 6.30	6.30 to 7.00	5.52 to 6.30	Cn1cc(-c2ccc3scc(-c4ccccc4)c3n2)cn1 [Preparative Example 2, 5-(1-methyl-1H-pyrazol-4-yl)-3-phenylthieno[3,2-b]pyridine]
5.52 to 6.30	5.00 to 5.52	5.52 to 6.30	6.30 to 7.00	Cn1ccc(Nc2ccc3scc(-c4ccncc4)c3n2)n1 [Preparative Example 99, N-(1-methyl-1H-pyrazol-3-yl)-3-(pyridin-4-yl)thieno[3,2-b]pyridin-5-amine]
